Results reported in EP0726263A2, “Herbicidal (1,3,4)oxadiazoles and thiadiazoles” (American Cyanamid Company, priority 1995, dated 1996).

Experiments:
Format in all cases: in vivo
Hordeum vulgare [1] = assay: Herbicidal activity, postemergence test; conditions: post; sprayed onto seedling plants, 800 g of active material per hectare; evaluated 2 weeks after treatment
Summary of the method: (§1)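 Spray dose 800 g a.i./ha in 900 L/ha; acetone stock with 0.4% Triton X-155, water-diluted. Pre: sown loam soil, read at 3 wk. Post: seedling plants, read at 2 wk. Visual 0-9 rating vs untreated.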

Abutilon theophrasti [2] = assay: Herbicidal activity, postemergence test; conditions: post; sprayed onto seedling plants, 800 g of active material per hectare; evaluated 2 weeks after treatment
Summary of the method: as §1

Viola arvensis [3] = assay: Herbicidal activity, postemergence test; conditions: post; sprayed onto seedling plants, 800 g of active material per hectare; evaluated 2 weeks after treatment
Summary of the method: as §1

Glycine max [4] = assay: Herbicidal activity, postemergence test; conditions: post; sprayed onto seedling plants, 800 g of active material per hectare; evaluated 2 weeks after treatment
Summary of the method: as §1

Veronica persica [5] = assay: Herbicidal activity, postemergence test; conditions: post; sprayed onto seedling plants, 800 g of active material per hectare; evaluated 2 weeks after treatment
Summary of the method: as §1

Ipomoea hederacea [6] = assay: Herbicidal activity, postemergence test; conditions: post; sprayed onto seedling plants, 800 g of active material per hectare; evaluated 2 weeks after treatment
Summary of the method: as §1

Papaver rhoeas [7] = assay: Herbicidal activity, postemergence test; conditions: post; sprayed onto seedling plants, 800 g of active material per hectare; evaluated 2 weeks after treatment
Summary of the method: as §1

Matricaria inodora [8] = assay: Herbicidal activity, postemergence test; conditions: post; sprayed onto seedling plants, 800 g of active material per hectare; evaluated 2 weeks after treatment
Summary of the method: as §1

Gossypium hirsutum [9] = assay: Herbicidal activity, postemergence test; conditions: post; sprayed onto seedling plants, 800 g of active material per hectare; evaluated 2 weeks after treatment
Summary of the method: as §1

Setaria viridis [10] = assay: Herbicidal activity, postemergence test; conditions: post; sprayed onto seedling plants, 800 g of active material per hectare; evaluated 2 weeks after treatment
Summary of the method: as §1

Helianthus annuus [11] = assay: Herbicidal activity, postemergence test; conditions: post; sprayed onto seedling plants, 800 g of active material per hectare; evaluated 2 weeks after treatment
Summary of the method: as §1

Triticum aestivum [12] = assay: Herbicidal activity, postemergence test; conditions: post; sprayed onto seedling plants, 800 g of active material per hectare; evaluated 2 weeks after treatment
Summary of the method: as §1

Galium aparine [13] = assay: Herbicidal activity, postemergence test; conditions: post; sprayed onto seedling plants, 800 g of active material per hectare; evaluated 2 weeks after treatment
Summary of the method: as §1

Zea mays [14] = assay: Herbicidal activity, postemergence test; conditions: post; sprayed onto seedling plants, 800 g of active material per hectare; evaluated 2 weeks after treatment
Summary of the method: as §1

Alopecurus myosuroides [15] = assay: Herbicidal activity, postemergence test; conditions: post; sprayed onto seedling plants, 800 g of active material per hectare; evaluated 2 weeks after treatment
Summary of the method: as §1

Lamium purpureum [16] = assay: Herbicidal activity, postemergence test; conditions: post; sprayed onto seedling plants, 800 g of active material per hectare; evaluated 2 weeks after treatment
Summary of the method: as §1

Hordeum vulgare [17] = assay: Herbicidal activity, preemergence test; conditions: pre; sprayed onto soil, 800 g of active material per hectare; evaluated 3 weeks after treatment
Summary of the method: as §1

Abutilon theophrasti [18] = assay: Herbicidal activity, preemergence test; conditions: pre; sprayed onto soil, 800 g of active material per hectare; evaluated 3 weeks after treatment
Summary of the method: as §1

Viola arvensis [19] = assay: Herbicidal activity, preemergence test; conditions: pre; sprayed onto soil, 800 g of active material per hectare; evaluated 3 weeks after treatment
Summary of the method: as §1

Glycine max [20] = assay: Herbicidal activity, preemergence test; conditions: pre; sprayed onto soil, 800 g of active material per hectare; evaluated 3 weeks after treatment
Summary of the method: as §1

Veronica persica [21] = assay: Herbicidal activity, preemergence test; conditions: pre; sprayed onto soil, 800 g of active material per hectare; evaluated 3 weeks after treatment
Summary of the method: as §1

Ipomoea hederacea [22] = assay: Herbicidal activity, preemergence test; conditions: pre; sprayed onto soil, 800 g of active material per hectare; evaluated 3 weeks after treatment
Summary of the method: as §1

Papaver rhoeas [23] = assay: Herbicidal activity, preemergence test; conditions: pre; sprayed onto soil, 800 g of active material per hectare; evaluated 3 weeks after treatment
Summary of the method: as §1

Matricaria inodora [24] = assay: Herbicidal activity, preemergence test; conditions: pre; sprayed onto soil, 800 g of active material per hectare; evaluated 3 weeks after treatment
Summary of the method: as §1

Gossypium hirsutum [25] = assay: Herbicidal activity, preemergence test; conditions: pre; sprayed onto soil, 800 g of active material per hectare; evaluated 3 weeks after treatment
Summary of the method: as §1

Setaria viridis [26] = assay: Herbicidal activity, preemergence test; conditions: pre; sprayed onto soil, 800 g of active material per hectare; evaluated 3 weeks after treatment
Summary of the method: as §1

Helianthus annuus [27] = assay: Herbicidal activity, preemergence test; conditions: pre; sprayed onto soil, 800 g of active material per hectare; evaluated 3 weeks after treatment
Summary of the method: as §1

Triticum aestivum [28] = assay: Herbicidal activity, preemergence test; conditions: pre; sprayed onto soil, 800 g of active material per hectare; evaluated 3 weeks after treatment
Summary of the method: as §1

Galium aparine [29] = assay: Herbicidal activity, preemergence test; conditions: pre; sprayed onto soil, 800 g of active material per hectare; evaluated 3 weeks after treatment
Summary of the method: as §1

Zea mays [30] = assay: Herbicidal activity, preemergence test; conditions: pre; sprayed onto soil, 800 g of active material per hectare; evaluated 3 weeks after treatment
Summary of the method: as §1

Alopecurus myosuroides [31] = assay: Herbicidal activity, preemergence test; conditions: pre; sprayed onto soil, 800 g of active material per hectare; evaluated 3 weeks after treatment
Summary of the method: as §1

Lamium purpureum [32] = assay: Herbicidal activity, preemergence test; conditions: pre; sprayed onto soil, 800 g of active material per hectare; evaluated 3 weeks after treatment
Summary of the method: as §1

Amaranthus retroflexus [33] = assay: Herbicidal activity, postemergence test; conditions: post; sprayed onto seedling plants, 800 g of active material per hectare; evaluated 2 weeks after treatment
Summary of the method: as §1

Ambrosia artemisifolia [34] = assay: Herbicidal activity, postemergence test; conditions: post; sprayed onto seedling plants, 800 g of active material per hectare; evaluated 2 weeks after treatment
Summary of the method: as §1

Chenopodium album [35] = assay: Herbicidal activity, postemergence test; conditions: post; sprayed onto seedling plants, 800 g of active material per hectare; evaluated 2 weeks after treatment
Summary of the method: as §1

Stellaria media [36] = assay: Herbicidal activity, postemergence test; conditions: post; sprayed onto seedling plants, 800 g of active material per hectare; evaluated 2 weeks after treatment
Summary of the method: as §1

Amaranthus retroflexus [37] = assay: Herbicidal activity, preemergence test; conditions: pre; sprayed onto soil, 800 g of active material per hectare; evaluated 3 weeks after treatment
Summary of the method: as §1

Ambrosia artemisifolia [38] = assay: Herbicidal activity, preemergence test; conditions: pre; sprayed onto soil, 800 g of active material per hectare; evaluated 3 weeks after treatment
Summary of the method: as §1

Chenopodium album [39] = assay: Herbicidal activity, preemergence test; conditions: pre; sprayed onto soil, 800 g of active material per hectare; evaluated 3 weeks after treatment
Summary of the method: as §1

Stellaria media [40] = assay: Herbicidal activity, preemergence test; conditions: pre; sprayed onto soil, 800 g of active material per hectare; evaluated 3 weeks after treatment
Summary of the method: as §1

Row | Structure (SMILES) | HORVW control rating (0-9) (Hordeum vulgare [1]) | ABUTH control rating (0-9) (Abutilon theophrasti [2]) | GLXMA control rating (0-9) (Glycine max [4]) | VERPE control rating (0-9) (Veronica persica [5]) | IPOHE control rating (0-9) (Ipomoea hederacea [6]) | PAPRH control rating (0-9) (Papaver rhoeas [7]) | MATIN control rating (0-9) (Matricaria inodora [8]) | GOSHI control rating (0-9) (Gossypium hirsutum [9]) | SETVI control rating (0-9) (Setaria viridis [10]) | TRZAW control rating (0-9) (Triticum aestivum [12]) | GALAP control rating (0-9) (Galium aparine [13]) | ZEAMX control rating (0-9) (Zea mays [14]) | ALOMY control rating (0-9) (Alopecurus myosuroides [15]) | LAMPU control rating (0-9) (Lamium purpureum [16]) | HORVW control rating (0-9) (Hordeum vulgare [17]) | ABUTH control rating (0-9) (Abutilon theophrasti [18]) | GLXMA control rating (0-9) (Glycine max [20]) | VERPE control rating (0-9) (Veronica persica [21]) | IPOHE control rating (0-9) (Ipomoea hederacea [22]) | PAPRH control rating (0-9) (Papaver rhoeas [23]) | also measured
1 | C[C@H](NC(=O)c1nnc(N(C)C)o1)c1ccccc1 [Example 6] | 2 (slight effect) | 2 (slight effect) | 0 (no effect) | 0 (no effect) | 2 (slight effect) | 0 (no effect) | 0 (no effect) | 2 (slight effect) | 0 (no effect) | 1 (trace effect) | 2 (slight effect) | 0 (no effect) | 2 (slight effect) | 1 (trace effect) | 0 (no effect) | 0 (no effect) | 0 (no effect) | 0 (no effect) | 0 (no effect) | 0 (no effect) | VIOAR control rating (0-9) (Viola arvensis [3]): 0 (no effect); HELAN control rating (0-9) (Helianthus annuus [11]): 2 (slight effect); VIOAR control rating (0-9) (Viola arvensis [19]): 2 (slight effect); MATIN control rating (0-9) (Matricaria inodora [24]): 0 (no effect); GOSHI control rating (0-9) (Gossypium hirsutum [25]): 0 (no effect); SETVI control rating (0-9) (Setaria viridis [26]): 0 (no effect); HELAN control rating (0-9) (Helianthus annuus [27]): 0 (no effect); TRZAW control rating (0-9) (Triticum aestivum [28]): 0 (no effect); GALAP control rating (0-9) (Galium aparine [29]): 0 (no effect); ZEAMX control rating (0-9) (Zea mays [30]): 0 (no effect); ALOMY control rating (0-9) (Alopecurus myosuroides [31]): 0 (no effect); LAMPU control rating (0-9) (Lamium purpureum [32]): 0 (no effect)
2 | C[C@H](NC(=O)c1nnc(-c2cc(Cl)cc(Cl)c2)o1)c1ccccc1 [Example 28] | 0 (no effect) | 0 (no effect) | 2 (slight effect) | 0 (no effect) | 0 (no effect) | 0 (no effect) | 0 (no effect) | 0 (no effect) | 0 (no effect) | 0 (no effect) | 0 (no effect) | 0 (no effect) | 0 (no effect) | 0 (no effect) | 0 (no effect) | 0 (no effect) | 0 (no effect) | 0 (no effect) | 0 (no effect) | 0 (no effect) | AMARE control rating (0-9) (Amaranthus retroflexus [33]): 0 (no effect); AMBEL control rating (0-9) (Ambrosia artemisifolia [34]): 0 (no effect); CHEAL control rating (0-9) (Chenopodium album [35]): 2 (slight effect); STEME control rating (0-9) (Stellaria media [36]): 0 (no effect); AMARE control rating (0-9) (Amaranthus retroflexus [37]): 0 (no effect); AMBEL control rating (0-9) (Ambrosia artemisifolia [38]): 0 (no effect); CHEAL control rating (0-9) (Chenopodium album [39]): 0 (no effect); MATIN control rating (0-9) (Matricaria inodora [24]): 0 (no effect); GOSHI control rating (0-9) (Gossypium hirsutum [25]): 0 (no effect); SETVI control rating (0-9) (Setaria viridis [26]): 0 (no effect); TRZAW control rating (0-9) (Triticum aestivum [28]): 0 (no effect); GALAP control rating (0-9) (Galium aparine [29]): 0 (no effect); ZEAMX control rating (0-9) (Zea mays [30]): 0 (no effect); ALOMY control rating (0-9) (Alopecurus myosuroides [31]): 0 (no effect); STEME control rating (0-9) (Stellaria media [40]): 0 (no effect); LAMPU control rating (0-9) (Lamium purpureum [32]): 0 (no effect)
3 | C[C@H](NC(=O)c1nnc(-c2ccc(F)cc2F)o1)c1ccccc1 [Example 32] | 3 (moderate effect) | 8 (approaching complete kill) | 5 (definite injury) | 9 (complete kill) | 9 (complete kill) | 9 (complete kill) | 9 (complete kill) | 9 (complete kill) | 9 (complete kill) | 3 (moderate effect) | 6 (herbicidal effect) | 3 (moderate effect) | 3 (moderate effect) | 9 (complete kill) | 0 (no effect) | 2 (slight effect) | 0 (no effect) | 9 (complete kill) | 0 (no effect) | 8 (approaching complete kill) | AMARE control rating (0-9) (Amaranthus retroflexus [33]): 8 (approaching complete kill); AMBEL control rating (0-9) (Ambrosia artemisifolia [34]): 8 (approaching complete kill); CHEAL control rating (0-9) (Chenopodium album [35]): 9 (complete kill); STEME control rating (0-9) (Stellaria media [36]): 9 (complete kill); AMARE control rating (0-9) (Amaranthus retroflexus [37]): 9 (complete kill); AMBEL control rating (0-9) (Ambrosia artemisifolia [38]): 1 (trace effect); CHEAL control rating (0-9) (Chenopodium album [39]): 8 (approaching complete kill); MATIN control rating (0-9) (Matricaria inodora [24]): 9 (complete kill); GOSHI control rating (0-9) (Gossypium hirsutum [25]): 0 (no effect); SETVI control rating (0-9) (Setaria viridis [26]): 9 (complete kill); TRZAW control rating (0-9) (Triticum aestivum [28]): 0 (no effect); GALAP control rating (0-9) (Galium aparine [29]): 2 (slight effect); ZEAMX control rating (0-9) (Zea mays [30]): 0 (no effect); ALOMY control rating (0-9) (Alopecurus myosuroides [31]): 3 (moderate effect); STEME control rating (0-9) (Stellaria media [40]): 9 (complete kill); LAMPU control rating (0-9) (Lamium purpureum [32]): 8 (approaching complete kill)
